Data set [1] addresses T1, Prostaglandin D2 receptor 2 (Homo sapiens, UniProt Q9Y5Y4).
T1 sequence (Q9Y5Y4 whole entry): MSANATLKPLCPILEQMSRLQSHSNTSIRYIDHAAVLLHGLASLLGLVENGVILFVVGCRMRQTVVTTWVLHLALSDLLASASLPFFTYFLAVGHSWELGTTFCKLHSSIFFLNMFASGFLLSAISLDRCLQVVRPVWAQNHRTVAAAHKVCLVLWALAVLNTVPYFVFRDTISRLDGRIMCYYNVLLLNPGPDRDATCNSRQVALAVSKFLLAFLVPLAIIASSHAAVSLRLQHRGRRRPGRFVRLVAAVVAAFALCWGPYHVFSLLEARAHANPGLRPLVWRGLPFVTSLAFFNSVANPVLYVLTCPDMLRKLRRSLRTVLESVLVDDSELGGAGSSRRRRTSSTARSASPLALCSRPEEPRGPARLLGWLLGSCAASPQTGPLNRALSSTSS
In words: Displacement of[3H]PGD2 from human CRTH2 receptor expressed in […] cells. The class given is cell-based.

The target of data set [2] is T1, Prostaglandin D2 receptor 2. Put plainly: Antagonist activity at human CRTH2 receptor expressed in […] cells assessed as inhibition of beta arrestin translocation by bioluminescence resonance energy transfer assay. It counts as functional, cell-based.
Data set [3] can be described thus: Aqueous solubility at pH 7.4. The class given is physicochemical.
The nature of data set [4]: Aqueous solubility at pH 1. The class given is physicochemical.
Data set [5] in a line: Permeability apical to basolateral side in human Caco-2 cells. The class given is ADME, cell-based. To be noted: read-out: permeability. A general note: Passage across Caco-2 layers is used to estimate intestinal permeability.
Data set [6] can be described thus: Metabolic stability in rat liver S9 fraction assessed as compound remaining. It counts as ADME, subcellular.
Data set [7] can be described thus: Metabolic stability in human liver S9 fraction assessed as compound remaining. The class given is ADME, subcellular.
Data set [8] deals with CYP2D6 (Homo sapiens, UniProt P10635). In words: Inhibition of CYP2D6 at 1 uM. The class given is ADME.
Chain of CYP2D6 (P10635 whole entry): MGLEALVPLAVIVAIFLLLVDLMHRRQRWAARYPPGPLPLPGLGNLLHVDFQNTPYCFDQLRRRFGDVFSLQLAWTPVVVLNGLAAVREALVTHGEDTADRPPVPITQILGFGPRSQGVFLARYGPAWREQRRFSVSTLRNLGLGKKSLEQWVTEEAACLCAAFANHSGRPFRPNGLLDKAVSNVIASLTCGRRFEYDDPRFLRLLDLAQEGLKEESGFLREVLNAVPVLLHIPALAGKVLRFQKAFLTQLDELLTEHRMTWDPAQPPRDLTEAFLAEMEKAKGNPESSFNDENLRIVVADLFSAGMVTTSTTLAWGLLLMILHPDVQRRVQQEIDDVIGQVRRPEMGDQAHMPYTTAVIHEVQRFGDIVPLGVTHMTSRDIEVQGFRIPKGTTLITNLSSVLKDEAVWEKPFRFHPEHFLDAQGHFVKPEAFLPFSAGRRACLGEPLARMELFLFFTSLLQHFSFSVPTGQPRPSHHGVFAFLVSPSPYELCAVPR
Data set [9] addresses CYP3A4 (Homo sapiens, UniProt P08684). In words: Inhibition of CYP3A4 at 1 uM. It counts as ADME.
Data set [10] in a line: Half life in rat. It counts as ADME, organism-based. To be noted: in vivo.
Data set [11] is described as follows: Clearance in rat. The class given is ADME, organism-based. The conditions noted are these: in vivo.
Data set [12] in a line: Bioavailability in rat. It counts as ADME, organism-based. The conditions noted are these: in vivo.
In data set [13] the target is Phospholipase A2 (Homo sapiens) (UniProt P04054). In words: Inhibition of PLA2 at 10 uM.
Chain of Phospholipase A2 (Homo sapiens) (P04054 23-148 limits assumed): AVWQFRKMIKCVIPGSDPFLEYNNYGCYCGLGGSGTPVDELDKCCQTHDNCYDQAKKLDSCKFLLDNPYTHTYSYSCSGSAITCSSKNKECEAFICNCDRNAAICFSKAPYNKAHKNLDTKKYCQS
Data set [14] has as its target Prostaglandin G/H synthase 1 (Homo sapiens) (UniProt P23219). In words: Inhibition of COX1 at 10 uM.
The target of data set [15] is T2, Prostaglandin G/H synthase 2 (Homo sapiens) (UniProt P35354).
T2 sequence (whole entry): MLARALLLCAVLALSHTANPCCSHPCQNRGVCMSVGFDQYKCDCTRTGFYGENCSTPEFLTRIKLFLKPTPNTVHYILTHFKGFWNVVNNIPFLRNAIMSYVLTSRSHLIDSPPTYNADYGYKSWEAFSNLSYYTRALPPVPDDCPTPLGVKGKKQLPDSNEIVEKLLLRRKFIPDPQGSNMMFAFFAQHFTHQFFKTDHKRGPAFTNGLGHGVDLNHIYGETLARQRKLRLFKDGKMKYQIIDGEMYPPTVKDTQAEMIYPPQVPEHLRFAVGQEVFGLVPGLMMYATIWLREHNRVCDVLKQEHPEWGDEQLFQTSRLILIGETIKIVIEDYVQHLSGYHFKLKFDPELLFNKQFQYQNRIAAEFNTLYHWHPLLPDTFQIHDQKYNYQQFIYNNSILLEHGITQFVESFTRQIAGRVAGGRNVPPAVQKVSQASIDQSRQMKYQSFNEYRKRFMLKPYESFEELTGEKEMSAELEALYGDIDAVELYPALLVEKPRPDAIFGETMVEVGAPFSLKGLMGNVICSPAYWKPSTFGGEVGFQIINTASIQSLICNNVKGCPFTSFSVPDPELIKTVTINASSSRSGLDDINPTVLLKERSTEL
In words: Inhibition of COX2 at 10 uM.

For data set [16], the target named is T3, Polyunsaturated fatty acid lipoxygenase ALOX12 (Homo sapiens) (UniProt P18054).
T3 sequence (whole entry): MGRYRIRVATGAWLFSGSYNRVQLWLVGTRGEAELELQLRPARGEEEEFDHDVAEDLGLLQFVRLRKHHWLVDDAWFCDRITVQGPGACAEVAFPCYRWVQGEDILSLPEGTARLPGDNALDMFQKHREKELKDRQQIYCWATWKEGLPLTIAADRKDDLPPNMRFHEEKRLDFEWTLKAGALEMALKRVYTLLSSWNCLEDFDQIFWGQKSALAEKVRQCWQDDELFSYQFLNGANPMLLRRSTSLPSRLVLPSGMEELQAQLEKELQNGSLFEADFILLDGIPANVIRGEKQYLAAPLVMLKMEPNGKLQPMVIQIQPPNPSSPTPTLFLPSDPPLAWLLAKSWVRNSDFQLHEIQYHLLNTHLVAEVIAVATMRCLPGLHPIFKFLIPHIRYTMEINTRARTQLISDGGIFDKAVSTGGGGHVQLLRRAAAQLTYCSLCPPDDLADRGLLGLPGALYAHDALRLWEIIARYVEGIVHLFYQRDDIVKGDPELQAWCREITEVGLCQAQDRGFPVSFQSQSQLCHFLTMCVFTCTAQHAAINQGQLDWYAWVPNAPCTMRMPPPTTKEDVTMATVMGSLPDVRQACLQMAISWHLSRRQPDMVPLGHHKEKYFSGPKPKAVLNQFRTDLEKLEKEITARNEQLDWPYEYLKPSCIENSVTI
In words: Inhibition of 12-lipoxygenase at 10 uM.

Data set [17] concerns the target T4, Polyunsaturated fatty acid lipoxygenase ALOX15 (Homo sapiens) (UniProt P16050).
T4 sequence (whole entry): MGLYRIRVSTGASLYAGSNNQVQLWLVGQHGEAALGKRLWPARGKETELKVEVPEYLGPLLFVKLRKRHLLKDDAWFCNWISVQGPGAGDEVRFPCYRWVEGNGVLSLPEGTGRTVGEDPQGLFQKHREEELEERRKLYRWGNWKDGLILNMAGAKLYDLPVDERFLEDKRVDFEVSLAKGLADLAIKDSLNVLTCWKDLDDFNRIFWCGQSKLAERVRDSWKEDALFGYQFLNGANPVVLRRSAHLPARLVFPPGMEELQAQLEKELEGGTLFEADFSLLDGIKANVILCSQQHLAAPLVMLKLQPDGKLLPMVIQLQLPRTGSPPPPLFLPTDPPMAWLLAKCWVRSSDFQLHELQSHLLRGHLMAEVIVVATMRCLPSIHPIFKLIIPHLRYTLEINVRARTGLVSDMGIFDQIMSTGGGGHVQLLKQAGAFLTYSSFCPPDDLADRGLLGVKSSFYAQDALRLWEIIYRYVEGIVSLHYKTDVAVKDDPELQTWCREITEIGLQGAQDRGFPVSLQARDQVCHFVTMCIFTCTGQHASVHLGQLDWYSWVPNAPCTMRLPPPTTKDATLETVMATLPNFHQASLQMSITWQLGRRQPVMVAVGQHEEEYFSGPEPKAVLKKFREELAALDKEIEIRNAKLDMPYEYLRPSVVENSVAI
In words: Inhibition of 15-lipoxygenase at 10 uM.

The target of data set [18] is T5, Prostaglandin D2 receptor (Homo sapiens, UniProt Q13258).
T5 sequence (Q13258 whole entry): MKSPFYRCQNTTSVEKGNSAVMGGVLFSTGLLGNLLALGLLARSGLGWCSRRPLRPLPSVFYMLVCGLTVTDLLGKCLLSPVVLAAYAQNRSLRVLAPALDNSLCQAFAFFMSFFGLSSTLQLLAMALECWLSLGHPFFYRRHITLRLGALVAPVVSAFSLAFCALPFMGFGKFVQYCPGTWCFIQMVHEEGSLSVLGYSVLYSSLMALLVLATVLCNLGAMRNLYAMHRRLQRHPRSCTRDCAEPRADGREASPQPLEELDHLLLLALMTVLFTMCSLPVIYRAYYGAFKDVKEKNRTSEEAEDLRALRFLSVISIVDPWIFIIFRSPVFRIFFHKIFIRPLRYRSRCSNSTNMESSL
In words: Inhibition of DP1 receptor.

Data set [19] addresses T6, Prostaglandin D2 receptor 2 (Homo sapiens) (UniProt Q9Y5Y4).
T6 sequence (whole entry): T1 sequence (Q9Y5Y4 whole entry)
In words: Antagonist activity at human CRTH2 receptor expressed in […] cells assessed as inhibition of beta arrestin translocation by bioluminescence resonance energy transfer assay relative to control. It counts as functional, cell-based.

Values after ≈ are worked out from the molar mass of the structure shown.

Chain of Prostaglandin G/H synthase 1 (Homo sapiens) (P23219 whole entry): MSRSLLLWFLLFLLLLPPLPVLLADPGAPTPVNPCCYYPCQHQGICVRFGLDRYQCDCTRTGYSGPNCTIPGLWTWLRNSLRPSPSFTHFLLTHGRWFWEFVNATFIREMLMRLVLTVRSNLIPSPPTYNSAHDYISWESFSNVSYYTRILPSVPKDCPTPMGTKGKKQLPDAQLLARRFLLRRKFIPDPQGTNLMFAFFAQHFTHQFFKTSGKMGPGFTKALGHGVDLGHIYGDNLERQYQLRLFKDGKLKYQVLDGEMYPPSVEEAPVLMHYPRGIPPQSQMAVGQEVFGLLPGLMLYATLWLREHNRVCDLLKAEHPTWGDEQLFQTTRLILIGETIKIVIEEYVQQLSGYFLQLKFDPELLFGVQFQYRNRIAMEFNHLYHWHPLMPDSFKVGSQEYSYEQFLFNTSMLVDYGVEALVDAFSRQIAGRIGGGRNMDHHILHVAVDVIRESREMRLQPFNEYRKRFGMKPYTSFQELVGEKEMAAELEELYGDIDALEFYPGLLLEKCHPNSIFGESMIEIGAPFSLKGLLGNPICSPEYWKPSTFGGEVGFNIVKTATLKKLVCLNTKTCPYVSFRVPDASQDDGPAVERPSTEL
Chain of CYP3A4 (P08684 whole entry): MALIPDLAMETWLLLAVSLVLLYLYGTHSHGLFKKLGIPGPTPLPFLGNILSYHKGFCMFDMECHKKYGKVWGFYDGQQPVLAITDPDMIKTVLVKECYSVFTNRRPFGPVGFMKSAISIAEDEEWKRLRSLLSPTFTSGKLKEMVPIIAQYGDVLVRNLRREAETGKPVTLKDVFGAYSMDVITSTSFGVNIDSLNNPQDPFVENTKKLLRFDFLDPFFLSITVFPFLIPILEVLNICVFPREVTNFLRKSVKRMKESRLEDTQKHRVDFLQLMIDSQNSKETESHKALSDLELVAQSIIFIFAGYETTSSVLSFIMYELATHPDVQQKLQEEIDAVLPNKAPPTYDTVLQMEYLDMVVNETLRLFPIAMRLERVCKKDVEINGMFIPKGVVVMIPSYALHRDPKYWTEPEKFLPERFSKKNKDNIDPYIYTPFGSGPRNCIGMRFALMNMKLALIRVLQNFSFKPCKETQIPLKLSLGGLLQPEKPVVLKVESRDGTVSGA

For the compound `O=C(O)Cc1sc(C(c2ccccc2)c2ccccc2)nc1-c1ccc(Cl)cc1`, the IC50 (as a rule, the concentration that gives 50% inhibition) is 14 nM in data set [1], 60 nM in data set [2] and 100000 nM in data set [18]. Also, the solubility (as a rule, the concentration that dissolves in the medium under given conditions) in data set [3] worked out at 154 µM (≈ 64.7 µg/mL); in data set [4] it was 197 µM (≈ 82.7 µg/mL). In [5], the Papp A→B was found to be 2.6 ×10⁻⁶ cm/s. In addition, the Stability is listed as 2.1% in data set [6] and 98.5% in data set [7]. In addition, the inhibition (as a rule, how much of the control response was suppressed) at 1 µM in data set [8] was found to be 97.8%; in data set [9], 69%. For the same compound, the half-life (in general, the time needed for the level to fall by half in the phase considered) in data set [10] was 24 h. In [11], the clearance (commonly the volume of plasma or blood freed of the substance per unit of time) stood at 27 mL/min/kg. For the same compound, the bioavailability – broadly, the share of a dose that reaches the circulation, judged against a reference dose that is usually intravenous – in data set [12] amounted to 62%. In addition, the inhibition in data set [13], in [14], in data set [15], in data set [16] and in data set [17] was 20% each time. The Efficacy in data set [19] is 50%.

The values above are taken from ChEMBL document CHEMBL1158509, “Novel selective thiazoleacetic acids as CRTH2 antagonists developed from in silico derived hits. Part 2” (Bioorg Med Chem Lett, 2010).
